Data as given in US20230225991A1, “COMPOUNDS FOR USE IN THE TREATMENT OF ACUTE INTERMITTENT PORPHYRIA” (VESTLANDETS INNOVASJONSSELSKAP AS, priority 2019, published 2023).
“Also recorded” adds a separate entry of the source.

Tests used:
[1] = target: T1, WT-HMBS (Homo sapiens, UniProt P08397); experiment: Enzymatic activity assay of recombinant HMBS, standard conditions; format: biochemical; details: 100 μM PBG at 37° C., 84 μM compound, 2% DMSO; relative to DMSO control
T1 construct: Full-length HMBS was cloned into pET-28a(+)-TEV vector and transformed into BL21 (DE3) cells for expression; 6xHis (N, cleaved yes); TEV protease cleavage site (N, cleaved yes); made in house; host or cells: E. coli BL21 (DE3)
T1 sequence (P08397 1-361): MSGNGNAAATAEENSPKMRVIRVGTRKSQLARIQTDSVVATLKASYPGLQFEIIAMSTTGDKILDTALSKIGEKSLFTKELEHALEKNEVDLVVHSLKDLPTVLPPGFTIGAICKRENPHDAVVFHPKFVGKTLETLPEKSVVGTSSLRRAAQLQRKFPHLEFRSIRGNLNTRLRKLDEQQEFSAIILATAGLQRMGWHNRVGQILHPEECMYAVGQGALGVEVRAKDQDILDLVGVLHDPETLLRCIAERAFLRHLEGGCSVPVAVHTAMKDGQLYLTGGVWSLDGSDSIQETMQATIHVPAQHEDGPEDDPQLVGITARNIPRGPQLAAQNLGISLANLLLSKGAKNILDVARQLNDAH
Description: The standard enzymatic activity of recombinant WT-HMBS was assayed at 37° C. as reported previously (Bustad et al., Bioscience reports, 2013; 33(4)). Compounds were added at a concentration of 84 μM. Absorbance of uroporphyrinogen I was determined at 405 nm. The enzyme activity in the presence of the compounds was normalized relative to DMSO-control (relative activity).
An enzymatic assay was performed to investigate the effect of compound BG-1 on the activity and conformational stability of HMBS. HMBS activity of the purified enzyme was measured in the absence and presence of compound BG-1 (at 84 μM) at standard conditions (37° C.) but also after pre-incubation at 70° C. for 20 min based on the high thermal stability of WT-HMBS.

[2] = test system: Hmbs-deficient T1/T2−/− mice; experiment: Mouse trial T1/T2-A, phenobarbital-induced biochemical acute attack
[3] = target: T2, HMBS (Homo sapiens, UniProt P08397); experiment: Octet RED96 binding (S0.5); design: Full-length HMBS was cloned into pET-28a(+)-TEV vector and transformed into BL21 (DE3) cells for expression; 6xHis (N, cleaved yes); TEV protease cleavage site (N, cleaved yes); made in house; host or cells: E. coli BL21 (DE3); details: sigmoidal binding isotherm, SSA biosensors, biotinylated HMBS; read-out: S0.5 (concentration for half-maximal binding), Octet
T2 sequence (P08397 1-361): T1 sequence (P08397 1-361)
Description: The enzyme used in the binding assays using the Octet RED96 was expressed using a new construct with an N-terminal 6×HIS affinity tag and a TEV protease cleavage site. Full-length HMBS was cloned into pET-28a(+)-TEV vector and transformed into BL21 (DE3) cells for expression. Expression was done in Terrific Broth medium with IPTG induction. Cells were cultured 16 h at 20° C. with 220 rpm shaking. After harvesting, the cells were lysed with sonication, and standard affinity purification was performed using Ni-NTA affinity matrix. Protein was eluted with 20 mM HEPES, 150 mM NaCl (gel filtration buffer), pH 8 supplemented with 400 mM imidazole. […]
Octet RED96 system (ForteBio Biologics by Molecular Devices, LLC., San Jose, Calif.) with super streptavidin (SSA) biosensors was used as an additional method for determining the Kd-value for the binding of the compounds. […] Triplicates for the concentration series of the compounds were measured, and double reference subtraction was applied for data analysis based on the steady-state kinetics with equilibrium binding signal (Req) using ForteBio Data analysis 9.0. […]
The binding of compounds BG-1 and BG-2 to HMBS was analyzed by surface plasmon resonance (SPR) and response units from concentration-dependent steady state measurements were analyzed assuming a 1:1 binding model. […]

[4] = target: T1, WT-HMBS; experiment: Surface plasmon resonance (SPR), HMBS immobilized to sensor chip; details: sigmoidal fitting of binding isotherm, 25° C., 0-200 μM compound; read-out: S0.5 (concentration for half-maximal binding), SPR
Description: Surface plasmon resonance experiments for the estimation of the concentration of compound at half-maximal binding (S0.5) were performed using a Biacore T200 (GE Healthcare) instrument at 25° C. 150 μg/ml WT-HMBS in 10 mM sodium acetate pH 4.5 was immobilized onto a CM5-S sensor chip through amine-coupling chemistry and PBS containing 0.05% surfactant P20 as running buffer, reaching immobilization levels ˜15,000. The baseline was equilibrated for 1-2 h, before the compounds were assayed in a concentration-dependent manner (0-200 μM), using running buffer with 5% DMSO and 30 μl/min flow rate. Contact and dissociation time was 60 s, with a final wash after 50% DMSO injection. Blank immobilization, solvent correction and negative control (assay buffer) were included for the analysis of the sensorgrams using the Biacore T200 Evaluation software v2.0. The allosteric sigmoidal curve fitting was performed using GraphPad Prism.
The binding of compounds BG-1 and BG-2 to HMBS was analyzed by surface plasmon resonance (SPR) and response units from concentration-dependent steady state measurements were analyzed assuming a 1:1 binding model. […] The interaction between compound BG-1 and HMBS was therefore further studied with Octet RED96 system with super streptavidin (SSA) biosensors. […]

In the case of O=Cc1cc(Cc2ccccc2Cl)cc([N+](=O)[O-])c1O [BG-1], the “Relative activity, standard” value [1] is reported as 0.98 ± 0.06, the “Toxicity in treated mice” value ([2]; 10 mg/kg/day oral gavage, 12 days, behavior and organ appearances) is reported as “No apparent toxicity; also recorded: No toxic effect was registered” and the “HMBS protein levels or activity in erythrocytes or liver” value ([2]; 10 mg/kg/day, 12 days, compared to non-treated Hmbs-deficient mice) is reported as “did not cause any significant change”. For the same compound, the “Urinary levels of ALA” value ([2]; 10 mg/kg/day, day 12, compared to non-treated mice) was “slight decreasing tendency” and the Kd [3] was 83 ± 7 µM.
In the case of O=C(c1ccccc1)c1ccc(Cl)c([N+](=O)[O-])c1 [BG-2], the Kd [4] is reported as 63 ± 3 µM.
